{"source": "patent US10045983B2", "about": "“Heteroaryl pyridone and aza-pyrodine compounds” (Genentech, Inc., priority 2011, dated 2018)", "data": [{"test": "CD69 Whole Blood Assay (CD69 Hu Blood FACS)", "type": "cell-based, human", "settings": "Lymphocyte; human whole blood, anti-IgM activated B lymphocytes, FACS; IC70; Table 1; read-out: CD69 Hu Blood FACS IC70", "outline": "(§1)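 Human whole blood stimulated by crosslinking surface IgM with goat F(ab′)2 anti-human IgM; inhibition of CD69 expression on B lymphocytes measured by flow cytometry.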", "units": {"IC70": "nM"}, "values": [{"molecule": "Cn1cc(-c2ccnc(N3CCn4c5c(c(F)c4C3=O)CCCC5)c2CO)cc(Nc2cc3n(n2)CCN(C2COC2)C3)c1=O", "note": "[Example 166, 10-Fluoro-2-[3′-hydroxymethyl-1-methyl-5-(5-oxetan-3-yl-4,5,6,7-tetrahydro-pyrazolo[1,5-a]pyrazin-2-ylamino)-6-oxo-1,6-dihydro-[3,4′]bipyridinyl-2′-yl]-3,4,6,7,8,9-hexahydro-2H-pyrazino[1,2-a]indol-1-one]", "IC70": 155}, {"molecule": "Cn1cc(-c2ccnc(N3CCn4c(cc5c4CC(C)(C)C5)C3=O)c2CO)cc(Nc2cc3n(n2)CCOC3)c1=O", "note": "[Example 168, 2-[5-(6,7-Dihydro-4H-pyrazolo[5,1-c][1,4]oxazin-2-ylamino)-3′-hydroxymethyl-1-methyl-6-oxo-1,6-dihydro-[3,4′]bipyridinyl-2′-yl]-7,7-dimethyl-3,4,7,8-tetrahydro-2H,6H-cyclopenta[4,5]pyrrolo[1,2-a]pyrazin-1-one]", "IC70": 63.5}, {"molecule": "Cn1cc(-c2ccnc(N3CCc4c(sc5c4CCCC5)C3=O)c2CO)cc(Nc2ccc(N3CCN(C4COC4)CC3)cn2)c1=O", "note": "[Example 169, 2-{3′-Hydroxymethyl-1-methyl-5-[5-(4-oxetan-3-yl-piperazin-1-yl)-pyridin-2-ylamino]-6-oxo-1,6-dihydro-[3,4′]bipyridinyl-2′-yl}-3,4,5,6,7,8-hexahydro-2H-benzo[4,5]thieno[2,3-c]pyridin-1-one]", "IC70": 206}, {"molecule": "C[C@H]1CN(C2COC2)CCN1c1ccc(Nc2cc(-c3ccnc(N4CCn5c(cc6c5[C@H]5CC[C@@H]6C5)C4=O)c3CO)cn(C)c2=O)nc1", "note": "[Example 171, (S)-2-(3-(hydroxymethyl)-4-(1-methyl-5-(5-(2-methyl-4-(oxetan-3-yl)piperazin-1-yl)pyridin-2-ylamino)-6-oxo-1,6-dihydropyridin-3-yl)pyridin-2-yl)-3,4,6,7,8,9-hexahydro-6,9-methanopyrazino[1,2-a]indol-1(2H)-one]", "IC70": 36}, {"molecule": "Cn1cc(-c2ccnc(N3CCn4c(cc5c4CCCC5)C3=O)c2CO)cc(Nc2nccnn2)c1=O", "note": "[Example 172, 2-(4-(5-(1,2,4-triazin-3-ylamino)-1-methyl-6-oxo-1,6-dihydropyridin-3-yl)-3-(hydroxymethyl)pyridin-2-yl)-3,4,6,7,8,9-hexahydropyrazino[1,2-a]indol-1(2H)-one]", "IC70": 5000}, {"molecule": "Cc1cc(Nc2cc(-c3ccnc(N4CCn5c(cc6c5CC(C)(C)C6)C4=O)c3CO)cn(C)c2=O)nc(C)n1", "note": "[Example 173, 2-[5-(2,6-Dimethyl-pyrimidin-4-ylamino)-3′-hydroxymethyl-1-methyl-6-oxo-1,6-dihydro-[3,4′]bipyridinyl-2′-yl]-7,7-dimethyl-3,4,7,8-tetrahydro-2H,6H-cyclopenta[4,5]pyrrolo[1,2-a]pyrazin-1-one]", "IC70": 1000}, {"molecule": "C[C@H]1CN(C2COC2)CCN1c1ccc(Nc2cc(-c3ccnc(N4CCn5c(cc6c5[C@@H]5CC[C@H]6C5)C4=O)c3CO)cn(C)c2=O)nc1", "note": "[Example 174, (1R,11S)-6-[3-(Hydroxymethyl)-4-[1-methyl-5-({5-[(2S)-2-methyl-4-(oxetan-3-yl)piperazin-1-yl]pyridin-2-yl}amino)-6-oxo-1,6-dihydropyridin-3-yl]pyridin-2-yl]-3,6-diazatetracyclo[9.2.1.0^2,10.0^3,8]tetradeca-2(10),8-dien-7-one]", "IC70": 101}, {"molecule": "CC[C@H]1CN(C2COC2)CCN1c1ccc(Nc2cc(-c3ccnc(-n4ncc5c6c(sc5c4=O)CCCC6)c3CO)cn(C)c2=O)nc1", "note": "[Example 175, 3-{5-[5-((S)-2-Ethyl-4-oxetan-3-yl-piperazin-1-yl)-pyridin-2-ylamino]-3′-hydroxymethyl-1-methyl-6-oxo-1,6-dihydro-[3,4′]bipyridinyl-2′-yl}-6,7,8,9-tetrahydro-3H-benzo[4,5]thieno[2,3-d]pyridazin-4-one]", "IC70": 46.6}, {"molecule": "C[C@H]1CN(C2COC2)CCN1c1ccc(Nc2cc(-c3ccnc(-n4ccn5c6c(cc5c4=O)CCCC6)c3CO)cn(C)c2=O)nc1", "note": "[Example 176, (S)-2-(3-(hydroxymethyl)-4-(1-methyl-5-(5-(2-methyl-4-(oxetan-3-yl)piperazin-1-yl)pyridin-2-ylamino)-6-oxo-1,6-dihydropyridin-3-yl)pyridin-2-yl)-6,7,8,9-tetrahydropyrazino[1,2-a]indol-1(2H)-one]", "IC70": 37.5}, {"molecule": "CCN1CCn2nc(Nc3cc(-c4ccnc(N5CCn6c(cc7c6CCCC7)C5=O)c4CO)cn(C)c3=O)cc2C1", "note": "[Example 177, 2-(4-(5-(5-ethyl-4,5,6,7-tetrahydropyrazolo[1,5-a]pyrazin-2-ylamino)-1-methyl-6-oxo-1,6-dihydropyridin-3-yl)-3-(hydroxymethyl)pyridin-2-yl)-3,4,6,7,8,9-hexahydropyrazino[1,2-a]indol-1(2H)-one]", "IC70": 107}, {"molecule": "Cn1cc(-c2ccnc(-n3ncc4c5c(sc4c3=O)CCCC5)c2CO)cc(Nc2ccccn2)c1=O", "note": "[Example 178, 3-[3′-Hydroxymethyl-1-methyl-6-oxo-5-(pyridin-2-ylamino)-1,6-dihydro-[3,4′]bipyridinyl-2′-yl]-6,7,8,9-tetrahydro-3H-benzo[4,5]thieno[2,3-d]pyridazin-4-one]", "IC70": 1100}, {"molecule": "Cc1nccc(Nc2cc(-c3ccnc(N4CCn5c(cc6c5CC(C)(C)C6)C4=O)c3CO)cn(C)c2=O)n1", "note": "[Example 179, 2-[3′-Hydroxymethyl-1-methyl-5-(2-methyl-pyrimidin-4-ylamino)-6-oxo-1,6-dihydro-[3,4′]bipyridinyl-2′-yl]-7,7-dimethyl-3,4,7,8-tetrahydro-2H,6H-cyclopenta[4,5]pyrrolo[1,2-a]pyrazin-1-one]", "IC70": 209}, {"molecule": "Cc1cc(Nc2cc(-c3ccnc(N4CCn5c(cc6c5CC(C)(C)C6)C4=O)c3CO)cn(C)c2=O)ncn1", "note": "[Example 180, 2-[3′-Hydroxymethyl-1-methyl-5-(6-methyl-pyrimidin-4-ylamino)-6-oxo-1,6-dihydro-[3,4′]bipyridinyl-2′-yl]-7,7-dimethyl-3,4,7,8-tetrahydro-2H,6H-cyclopenta[4,5]pyrrolo[1,2-a]pyrazin-1-one]", "IC70": 245}, {"molecule": "CN1CCn2nc(Nc3cc(-c4ccnc(-n5ncc6c7c(sc6c5=O)CCCC7)c4CO)cn(C)c3=O)cc2C1", "note": "[Example 181, 3-[3′-Hydroxymethyl-1-methyl-5-(5-methyl-4,5,6,7-tetrahydro-pyrazolo[1,5-a]pyrazin-2-ylamino)-6-oxo-1,6-dihydro-[3,4′]bipyridinyl-2′-yl]-6,7,8,9-tetrahydro-3H-benzo[4,5]thieno[2,3-d]pyridazin-4-one]", "IC70": 144}, {"molecule": "Cn1cc(-c2ccnc(-n3ncc4c5c(sc4c3=O)CCCC5)c2CO)cc(Nc2ccncn2)c1=O", "note": "[Example 182, 3-[3′-Hydroxymethyl-1-methyl-6-oxo-5-(pyrimidin-4-ylamino)-1,6-dihydro-[3,4′]bipyridinyl-2′-yl]-6,7,8,9-tetrahydro-3H-benzo[4,5]thieno[2,3-d]pyridazin-4-one]", "IC70": 813}, {"molecule": "Cn1cc(-c2ccnc(N3CCn4c5c(c(F)c4C3=O)CCCC5)c2CO)cc(Nc2ccccn2)c1=O", "note": "[Example 183, 10-fluoro-2-(3-(hydroxymethyl)-4-(1-methyl-6-oxo-5-(pyridin-2-ylamino)-1,6-dihydropyridin-3-yl)pyridin-2-yl)-3,4,6,7,8,9-hexahydropyrazino[1,2-a]indol-1(2H)-one]", "IC70": 906}, {"molecule": "Cn1cc(-c2ccnc(N3CCc4c(sc5c4CC(C)(C)C5)C3=O)c2CO)cc(Nc2cnccn2)c1=O", "note": "[Example 184, 6-[3′-Hydroxymethyl-1-methyl-6-oxo-5-(pyrazin-2-ylamino)-1,6-dihydro-[3,4′]bipyridinyl-2′-yl]-2,2-dimethyl-2,3,5,6-tetrahydro-1H,4H-8-thia-6-aza-cyclopenta[a]inden-7-one]", "IC70": 601}, {"molecule": "Cn1cc(-c2ccnc(N3CCn4c(cc5c4CC(C)(C)C5)C3=O)c2CO)nc(Nc2ccn3ccnc3c2)c1=O", "note": "[Example 185, 2-{3-Hydroxymethyl-4-[6-(imidazo[1,2-a]pyridin-7-ylamino)-4-methyl-5-oxo-4,5-dihydro-pyrazin-2-yl]-pyridin-2-yl}-7,7-dimethyl-3,4,7,8-tetrahydro-2H,6H-cyclopenta[4,5]pyrrolo[1,2-a]pyrazin-1-one]", "IC70": 1300}, {"molecule": "Cn1cc(-c2ccnc(N3CCn4c5c(c(F)c4C3=O)CCCC5)c2CO)nc(Nc2cccnc2)c1=O", "note": "[Example 186, 10-fluoro-2-(3-(hydroxymethyl)-4-(4-methyl-5-oxo-6-(pyridin-3-ylamino)-4,5-dihydropyrazin-2-yl)pyridin-2-yl)-3,4,6,7,8,9-hexahydropyrazino[1,2-a]indol-1(2H)-one]", "IC70": 1600}, {"molecule": "Cn1cc(-c2ccnc(N3CCn4c(cc5c4CCCC5)C3=O)c2CO)cc(Nc2ccc(N3CCN(C4COC4)CC3(C)C)cn2)c1=O", "note": "[Example 187, 2-(4-(5-(5-(2,2-dimethyl-4-(oxetan-3-yl)piperazin-1-yl)pyridin-2-ylamino)-1-methyl-6-oxo-1,6-dihydropyridin-3-yl)-3-(hydroxymethyl)pyridin-2-yl)-3,4,6,7,8,9-hexahydropyrazino[1,2-a]indol-1(2H)-one]", "IC70": 45.1}, {"molecule": "Cn1cc(-c2ccnc(N3CCn4c(cc5c4CC(C)(C)C5)C3=O)c2CO)cc(Nc2cnccn2)c1=O", "note": "[Example 188, 2-[3′-Hydroxymethyl-1-methyl-6-oxo-5-(pyrazin-2-ylamino)-1,6-dihydro-[3,4′]bipyridinyl-2′-yl]-7,7-dimethyl-3,4,7,8-tetrahydro-2H,6H-cyclopenta[4,5]pyrrolo[1,2-a]pyrazin-1-one]", "IC70": 601}, {"molecule": "Cn1cc(-c2ccnc(N3CCn4c(cc5c4CCCC5)C3=O)c2CO)cc(Nc2cnc(N3CCN(C4COC4)CC3)cn2)c1=O", "note": "[Example 189, 2-(3-(hydroxymethyl)-4-(1-methyl-5-(5-(4-(oxetan-3-yl)piperazin-1-yl)pyrazin-2-ylamino)-6-oxo-1,6-dihydropyridin-3-yl)pyridin-2-yl)-3,4,6,7,8,9-hexahydropyrazino[1,2-a]indol-1(2H)-one]", "IC70": 652}]}, {"test": "CD69 Whole Blood Assay (CD69 Hu Blood FACS)", "type": "cell-based, human", "settings": "Lymphocyte; human whole blood, anti-IgM activated B lymphocytes, FACS; IC70; Table 2 (unit inferred); read-out: CD69 Hu Blood FACS (IC70)", "outline": "as §1", "units": {"IC70": "nM"}, "values": [{"molecule": "Cn1cc(-c2ccnc(N3CCn4c(cc5c4CCCC5)C3=O)c2CO)cc(Nc2ccc(N3CCN(C4COC4)CC3(C)C)cn2)c1=O", "note": "[Example 190, 2-[4-[5-[[5-[2,2-dimethyl-4-(oxetan-3-yl)piperazin-1-yl]-2-pyridyl]amino]-1-methyl-6-oxo-3-pyridyl]-3-(hydroxymethyl)-2-pyridyl]-3,4,6,7,8,9-hexahydropyrazino[1,2-a]indol-1-one]", "IC70": 70.4}]}]}
